Source: publication PMC11415492 (Nature Communications, 2024)
Values joined by “and” are separate entries in the source; they are usually repeats but may differ in a detail not shown here. Equal values may be shown once. Where a name gives a salt, the structure may show the parent alone. Read-outs that look alike come from different tables or passages of the source.

Experiments:
[1] = Pharmacokinetic study in mice (plasma and brain), with estimated free drug concentrations; type: in vivo, mouse; settings: for Total concentration: Mice; for CLf / T1/2 / Cmax / AUC(0-inf) / AUC(0-t) / Tmax / half-life / Vd/F: male C57BL/6 mice; for concentration at 0.083 h / concentration at 0.25 h / concentration at 0.5 h / concentration at 1 h / concentration at 2 h / Cmax / AUC(0-inf) / AUC(0-t): male, C57BL/6, mouse; for concentration at 0.083 h / concentration at 0.25 h / concentration at 0.5 h / concentration at 1 h / concentration at 2 h / Cmax / AUC(0-inf) / AUC(0-t) / Tmax / half-life / Vd/F: sc; for Tmax / half-life / Vd/F: mouse; for half-life: read-out: T1/2z (converted); for Vd/F: read-out: VZ/F
[2] = Noribogaine clinical dose escalation data (plasma concentration, QT); type: in vivo; settings: from reported clinical total plasma concentrations and own human plasma protein binding
[3] = human
hERG potassium channel = biological target: T1, hERG potassium channel (Homo sapiens, UniProt Q12809); settings: lit. value; cited from earlier work
T1 construct: purchased contracted research organization (eurofinsdiscoveryservices.com) item 4094

[4] = 180 mg oral dose; cited from earlier work
[5] = 24 h, mice, 10 mg/kg s.c., individual animals, 10 mg/kg
[6] = brain, 10 mg/kg, mice, 10 mg/kg s.c., individual animals, read-out: Brain Concentration (total)
[7] = brain, 10 mg/kg, mice, 10 mg/kg s.c., individual animals, read-out: Free Brain Concentration
[8] = brain, 10 mg/kg, single s.c. 10 mg/kg
[9] = plasma, 10 mg/kg, mice, 10 mg/kg s.c., individual animals, read-out: Free Plasma Concentration
[10] = plasma, 10 mg/kg, mice, 10 mg/kg s.c., individual animals, read-out: Plasma Concentration (total)
[11] = plasma, 10 mg/kg, s.c. 10 mg/kg
[12] = plasma, 10 mg/kg, single s.c. 10 mg/kg

T1 sequence (Q12809 whole entry): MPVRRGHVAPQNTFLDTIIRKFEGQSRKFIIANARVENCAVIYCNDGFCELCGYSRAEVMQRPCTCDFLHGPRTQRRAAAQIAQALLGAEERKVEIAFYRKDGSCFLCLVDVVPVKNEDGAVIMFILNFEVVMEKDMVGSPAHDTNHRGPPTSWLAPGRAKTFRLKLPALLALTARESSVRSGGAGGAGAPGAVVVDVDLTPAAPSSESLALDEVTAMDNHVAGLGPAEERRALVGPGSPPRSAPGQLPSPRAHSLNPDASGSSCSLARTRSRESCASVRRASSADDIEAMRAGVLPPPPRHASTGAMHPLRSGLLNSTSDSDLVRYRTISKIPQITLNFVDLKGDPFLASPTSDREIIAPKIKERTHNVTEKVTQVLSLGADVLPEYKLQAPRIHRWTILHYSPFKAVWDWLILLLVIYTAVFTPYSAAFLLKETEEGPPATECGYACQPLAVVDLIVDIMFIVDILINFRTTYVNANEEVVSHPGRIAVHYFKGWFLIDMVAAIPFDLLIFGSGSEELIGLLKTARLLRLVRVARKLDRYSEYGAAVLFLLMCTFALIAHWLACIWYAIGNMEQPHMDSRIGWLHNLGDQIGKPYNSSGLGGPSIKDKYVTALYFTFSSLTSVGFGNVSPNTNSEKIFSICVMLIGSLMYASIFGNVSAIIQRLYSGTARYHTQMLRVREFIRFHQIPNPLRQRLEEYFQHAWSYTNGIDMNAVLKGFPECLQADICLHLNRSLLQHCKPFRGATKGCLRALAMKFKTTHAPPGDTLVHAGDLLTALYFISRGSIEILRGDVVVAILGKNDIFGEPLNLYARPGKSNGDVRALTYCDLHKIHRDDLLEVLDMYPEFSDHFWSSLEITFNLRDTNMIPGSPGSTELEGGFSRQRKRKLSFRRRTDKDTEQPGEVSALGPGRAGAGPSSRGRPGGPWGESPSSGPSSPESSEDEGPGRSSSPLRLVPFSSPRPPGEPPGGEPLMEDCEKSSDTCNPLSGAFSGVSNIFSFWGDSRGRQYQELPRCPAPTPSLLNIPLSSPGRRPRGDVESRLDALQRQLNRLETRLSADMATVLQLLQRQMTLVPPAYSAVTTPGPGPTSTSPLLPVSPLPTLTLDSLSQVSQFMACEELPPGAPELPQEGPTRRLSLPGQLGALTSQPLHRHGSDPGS

CCC1CC2CC3c4[nH]c5ccc(O)cc5c4CCN(C2)C13 (centres unmarked) [Noribogaine, Noribogaine hydrochloride]
Plasma Concentration (total) ([1]; 8 h, mice, 10 mg/kg s.c., individual animals, 10 mg/kg): 0.26 µmol/L and 0.24 µmol/L and 0.1 µmol/L
Brain Concentration (total) [1, 5]: 0.03 µmol/L and 0 µmol/L (2×)
Free Brain Concentration [1, 5]: 0.004 µmol/L and 0 µmol/L (2×)
Free Plasma Concentration [1, 5]: 0.002 µM and 0.004 µM and 0 µM
Plasma Concentration (total) [1, 5]: 0.01 µmol/L and 0 µmol/L (2×)
Total concentration ([1]; Brain, 10 mg/kg s.c.): 17.18 µmol/L
CLf ([1]; Brain, single s.c. 10 mg/kg): 13.76 mL/min/kg
T1/2 ([1]; Brain, single s.c. 10 mg/kg): 1.71 h
Total concentration ([1]; Plasma, 10 mg/kg s.c.): 6.68 µmol/L
CLf ([1]; Plasma, single s.c. 10 mg/kg): 31.87 mL/min/kg
T1/2 ([1]; Plasma, single s.c. 10 mg/kg): 2.76 h
CLf ([1]; brain, s.c. 10 mg/kg): 13.76 mL/min/kg
concentration at 0.083 h [1, 6]: 6.75 µM
concentration at 0.083 h [1, 7]: 0.797 µM
concentration at 0.25 h [1, 6]: 8.04 µM
concentration at 0.25 h [1, 7]: 0.949 µM
concentration at 0.5 h [1, 6]: 14.6 µM
concentration at 0.5 h [1, 7]: 1.72 µM
concentration at 1 h [1, 6]: 11.7 µM
concentration at 1 h [1, 7]: 1.39 µM
concentration at 2 h [1, 6]: 7.82 µM
concentration at 2 h [1, 7]: 0.923 µM
Cmax ([1]; brain, 10 mg/kg, Brain (brain conc. as ng/g), single s.c. 10 mg/kg): 5090 ng/mL
AUC(0-inf) ([1]; brain, 10 mg/kg, s.c. 10 mg/kg): 12100 ng·h/mL
AUC(0-t) ([1]; brain, 10 mg/kg, s.c. 10 mg/kg): 11700 ng·h/mL
Cmax ([1]; brain, 10 mg/kg, s.c. 10 mg/kg): 5090 ng/g
AUC(0-inf) [1, 8]: 12100 ng·h/mL
AUC(0-t) [1, 8]: 11700 ng·h/mL and 39.4 µM·h
Cmax [1, 8]: 17.2 µM
concentration at 0.25 h [1, 9]: 2.91 µM
concentration at 0.25 h [1, 10]: 4.84 µM
concentration at 0.5 h [1, 9]: 3.34 µM
concentration at 0.5 h [1, 10]: 5.36 µM
concentration at 1 h [1, 9]: 1.97 µM
concentration at 1 h [1, 10]: 4.03 µM
concentration at 2 h [1, 9]: 1.28 µM
concentration at 2 h [1, 10]: 3.43 µM
AUC(0-inf) [1, 11]: 5230 ng·h/mL
AUC(0-t) [1, 11]: 5220 ng·h/mL
Cmax [1, 11]: 1980 ng/mL
AUC(0-inf) [1, 12]: 5230 ng·h/mL
AUC(0-t) [1, 12]: 5220 ng·h/mL and 17.6 µM·h
Cmax [1, 12]: 1980 ng/mL and 6.68 µM
Tmax ([1]; brain, s.c. 10 mg/kg): 0.5 h
half-life ([1]; brain, s.c. 10 mg/kg): 1.71 h
Vd/F ([1]; brain, s.c. 10 mg/kg): 2.04 L/kg
Tmax ([1]; plasma, s.c. 10 mg/kg): 0.5 h
half-life ([1]; plasma, s.c. 10 mg/kg): 2.76 h
Vd/F ([1]; plasma, s.c. 10 mg/kg): 7.62 L/kg
CLf ([1]; plasma, s.c. 10 mg/kg): 31.87 mL/min/kg
estimated free plasma noribogaine Cmax ([2]; 60 mg oral dose, mild QT effect): approximately 100 nM
estimated free plasma noribogaine Cmax ([2]; 180 mg oral dose): 0.3 to 0.4 µM
% Stability (4 h) [3]: 105%
% Unbound ([3]; plasma, pH 7.4): 40.1%
Ki (hERG potassium channel): 2000 nM
QT prolongation [4]: > 500 ms
